What all share (assay): Bliss excess, mean over the matrix (fraction); higher = more synergy
One assay deals with D-263MG (Glioblastoma). Put shortly: (§1)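 After 24 hours at 37°C and 5% CO2 in 1536-well plates, cells in DMEM/F12 or RPMI plus 10% FBS received two-drug dose matrices for 72 hours. Viability came from CellTiter-Glo 2.0 luminescence and was scaled as inhibition, anchored at 0 by vehicle wells and at 1 by blank wells. Combination Emax is taken as the second-highest inhibition in the matrix, and Bliss excess as the observed combination effect less EA + EB − EA·EB, with EA and EB the single-agent effects.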

In assay [1] the test system is EFM-19 (Breast Carcinoma). Put shortly: as §1
The test system of the next assay is EW-24 (Ewing's Sarcoma). In outline: as §1
Assay [2] relates to EoL-1-cell (Acute Myeloid Leukemia). In outline:
as §1

For assay [3], the system named is HSC-4 (Oral Cavity Carcinoma). Put shortly: as §1
Assay [4] has as its system Hs-766T (Pancreatic Carcinoma). In outline: as §1
The test system of assay [5] is KMOE-2 (Acute Myeloid Leukemia). Put shortly: as §1
Assay [6] deals with LU-65 (Non-Small Cell Lung Carcinoma). Put shortly: as §1
A further assay relates to NB69 (Neuroblastoma). In outline:
as §1

In assay [7] the test system is NCI-H1915 (Non-Small Cell Lung Carcinoma). Put shortly:
as §1

Assay [8] has as its system NCI-H358 (Lung Adenocarcinoma). In outline:
as §1

Assay [9] concerns NEC8 (Other Solid Carcinomas). In outline: as §1
Assay [10] concerns NUGC-3 (Gastric Carcinoma). Put shortly:
as §1

Assay [11] has as its system OE19 (Esophageal Adenocarcinoma). Put shortly: as §1
Assay [12] has as its system OSC-20 (Oral Cavity Carcinoma). Put shortly: as §1
Assay [13] has as its system OVCAR-4 (Ovarian Carcinoma). Put shortly:
as §1

The subject of a further assay is PWR-1E (Non-Cancerous). Put shortly:
as §1

In assay [14] the test system is SCC-15 (Oral Cavity Carcinoma). Put shortly: as §1
Assay [15] concerns TE-1 (Esophageal Squamous Cell Carcinoma). In outline:
as §1

The subject of a further assay is TK10 (Kidney Carcinoma). In outline: as §1

Regarding `C[C@@H]1COCCN1c1cc(C2([S@](C)(=N)=O)CC2)nc(-c2ccnc3[nH]ccc23)n1` [AZD6738] + O=C(c1cc(Cc2n[nH]c(=O)c3ccccc23)ccc1F)N1CCN(C(=O)C2CC2)CC1 [Olaparib] (first compound max 10 µM, 7x7, partner max 10 µM), the Bliss excess with D-263MG (Glioblastoma) was 0.0604; in assay [1], 0.0141; with EW-24 (Ewing's Sarcoma), -0.0177; in assay [2], 0.0073; in assay [3], -0.0172; in [4], -0.0039. The Bliss excess in assay [5] was 0.0413; in [6], 0.0026; with NB69 (Neuroblastoma), 0.045; in [7], -0.0182; in assay [8] it was -0.0276; in [9], 0.0254. Also, the Bliss excess in assay [10] is -0.0296; in assay [11], -0.133; in assay [12], 0.0171; in [13] it was 0.0035; in the assay on PWR-1E (Non-Cancerous) it was -0.0632; in [14], 0.0011. Also, the Bliss excess in assay [15] was -0.0461; with TK10 (Kidney Carcinoma), -0.0735.
Consider `NC1(C(=O)N[C@@H](CCO)c2ccc(Cl)cc2)CCN(c2ncnc3[nH]ccc23)CC1` [Capivasertib] + CC(=O)c1c(C)c2cnc(Nc3ccc(N4CCNCC4)cn3)nc2n(C2CCCC2)c1=O [Palbociclib] (first compound max 10 µM, 7x7, partner max 10 µM), for which the Bliss excess was 0.0117 in the assay with D-263MG (Glioblastoma); -0.0107 in [1]; 0.0087 in the assay with EW-24 (Ewing's Sarcoma); -0.0039 in assay [2]; -0.0777 in assay [3]; 0.0056 in [4]. Further, the Bliss excess in [5] is -0.0566; in assay [6] it was -0.151; with NB69 (Neuroblastoma) it was -0.009; in assay [7], -0.0247; in assay [8], -0.0373; in assay [9], -0.0104. The Bliss excess was 0.0372 in assay [10]; -0.0854 in [11]; -0.0005 in assay [12]; -0.0517 in assay [13]; -0.017 in the assay on PWR-1E (Non-Cancerous); -0.0456 in assay [14]. The Bliss excess in [15] is -0.0276; in the assay on TK10 (Kidney Carcinoma), -0.0106.
`NC1(C(=O)N[C@@H](CCO)c2ccc(Cl)cc2)CCN(c2ncnc3[nH]ccc23)CC1` [Capivasertib] + CC(C)n1c(=O)n(C)c2cnc3cc(F)c(-c4ccc(OCCCN5CCCCC5)nc4)cc3c21 [AZD1390] (first compound max 10 µM, 7x7, partner max 0.3 µM): the Bliss excess with D-263MG (Glioblastoma) is -0.0713; in assay [1] it was -0.0614; in the assay with EW-24 (Ewing's Sarcoma) it was -0.218; in assay [2] it was -0.0173; in assay [3] it was -0.0891; in [4], -0.082. Also, the Bliss excess in assay [5] is -0.0666; in [6] it was -0.248; with NB69 (Neuroblastoma), -0.0787; in assay [7], -0.0621; in [8] it was -0.0088; in assay [9], -0.0089. Moreover, the Bliss excess in assay [10] was -0.0372; in assay [11], -0.0026; in [12], -0.0528; in assay [13] it was -0.0488; in the assay with PWR-1E (Non-Cancerous), -0.0341; in [14] it was -0.0796. Besides, the Bliss excess in assay [15] is -0.0818; in the assay with TK10 (Kidney Carcinoma), -0.0798.
As to `NC1(C(=O)N[C@@H](CCO)c2ccc(Cl)cc2)CCN(c2ncnc3[nH]ccc23)CC1` [Capivasertib] + CCN(CCO)CCCOc1ccc2c(Nc3cc(CC(=O)Nc4cccc(F)c4)[nH]n3)ncnc2c1 [AZD2811] (first compound max 10 µM, 7x7, partner max 1 µM), the Bliss excess in the assay with D-263MG (Glioblastoma) is 0.0163; in [1], -0.0084; with EW-24 (Ewing's Sarcoma) it was -0.0029; in assay [2], -0.0177; in [3] it was -0.081; in assay [4] it was -0.0559. In addition, the Bliss excess in assay [5] is -0.0154; in [6] it was -0.215; in the assay with NB69 (Neuroblastoma) it was -0.0339; in assay [7], -0.0294; in assay [8] it was -0.0521; in [9] it was -0.0094. In addition, the Bliss excess in [10] is -0.0178; in assay [11], -0.0513; in assay [12], 0.0045; in [13], -0.0092; in the assay with PWR-1E (Non-Cancerous), -0.0124; in [14] it was 0.0105. Further, the Bliss excess in assay [15] is -0.0347; in the assay on TK10 (Kidney Carcinoma), -0.0434.
As to `NC1(C(=O)N[C@@H](CCO)c2ccc(Cl)cc2)CCN(c2ncnc3[nH]ccc23)CC1` [Capivasertib] + COc1nnc2ccc(N3CCC(c4ccc(OCCN5CCN(C)C(=O)[C@H]5C)cc4)CC3)nn12 [AZD5153] (first compound max 10 µM, 7x7, partner max 1 µM), the Bliss excess with D-263MG (Glioblastoma) was 0.0459; in [1], 0.0634; with EW-24 (Ewing's Sarcoma), 0.0532; in assay [2], -0.0442; in [3] it was 0.0211; in assay [4], 0.0126. Besides, the Bliss excess was -0.0211 in assay [5]; -0.152 in assay [6]; -0.0299 in the assay with NB69 (Neuroblastoma); 0.0289 in [7]; -0.0514 in assay [8]; 0.0363 in [9]. Besides, the Bliss excess in [10] was 0.0564; in [11] it was 0.0561; in assay [12] it was 0.0093; in assay [13] it was -0.0387; with PWR-1E (Non-Cancerous), 0.0579; in [14] it was 0.028. Also, the Bliss excess is -0.0169 in assay [15] and -0.0154 in the assay on TK10 (Kidney Carcinoma).
Take `NC1(C(=O)N[C@@H](CCO)c2ccc(Cl)cc2)CCN(c2ncnc3[nH]ccc23)CC1` [Capivasertib] + C[C@@H]1COCCN1C2=NC(=NC(=C2)C3(CC3)[S@](=N)(=O)C)C4=C5C=CNC5=NC=C4 [AZD6738] (first compound max 10 µM, 7x7, partner max 10 µM): the Bliss excess is -0.0685 with D-263MG (Glioblastoma); -0.0072 in [1]; -0.0488 with EW-24 (Ewing's Sarcoma); 0.0272 in [2]; -0.0422 in assay [3]; -0.02 in [4]. The Bliss excess in assay [5] was -0.0336; in assay [6], -0.137; with NB69 (Neuroblastoma) it was -0.0728; in assay [7] it was -0.081; in [8] it was -0.0896; in assay [9], 0.0288. Moreover, the Bliss excess is -0.0639 in assay [10]; -0.0619 in assay [11]; -0.0194 in assay [12]; -0.0267 in assay [13]; -0.0534 with PWR-1E (Non-Cancerous); -0.027 in assay [14]. For the same compound, the Bliss excess is -0.0831 in assay [15] and -0.0604 with TK10 (Kidney Carcinoma).

Source of the values: the supplement of paper PMC11061612.
